Reference: patent publication US20210278408A1, “METHODS OF TREATMENT OF CANCER WITH SUBSTITUTED PYRROLE AND PYRAZOLE COMPOUNDS AND DIAGNOSIS OF CANCERS SUSCEPTIBLE TO TREATMENT WITH SUBSTITUTED PYRROLE AND PYRAZOLE COMPOUNDS” (Bantam Pharmaceutical, LLC, priority 2018, published 2021)
Read-outs that look alike come from different tables or passages of the source.

What was measured:
Jurkat = experiment: Anti-proliferative activity, CellTiter-Glo, 72 hours: Jurkat; format: cell-based, human; conditions: Jurkat (T cell leukemia), Cell-Titre-Glo
Experimental: (§1) Anti-proliferative activity of BTM compounds. The anti-proliferative activities of Compound A197 and Compound B19 were compared to 4EGI-1 (a known cancer cell growth inhibitor) in a panel of 99 tumor lines. Methods: A panel of 96 tumor and 3 normal cell lines were tested for sensitivity to the test compound. The cell lines were cultured in standard media and pipetted into 96-well plates at the required plating densities. The cells were acclimated for 24 hours prior to compound testing. Compound was prepared as a stock of 20 mM in DMSO. To prepare dose response curves compound was serially diluted in DMSO and dispensed into the plate wells using a Tecan D300e digital dispenser. The final DMSO concentration was 0.15%. After 72 hours of incubation cell number was determined using the CellTiter-Glo® protocol according to the manufacturers instructions (Promega). In this assay, ATP is measured as a surrogate of cell number. The activity of the compound is determined by comparing untreated cells with treated cells and calculating the % of signal retained. Compound activity is measured as an EC50 of maximum level of efficacy and the two are used to compute an activity area. The table below provides a comparison of activity in a data sample.

HCT-116 = experiment: Anti-proliferative activity, CellTiter-Glo, 72 hours: HCT-116; format: cell-based, human; conditions: HCT-116 (colorectal cancer), Cell-Titre-Glo
Experimental: as §1

SU-DHL-6 = experiment: Anti-proliferative activity, CellTiter-Glo, 72 hours: SU-DHL-6; format: cell-based, human; conditions: SU-DHL-6 (B-cell lymphoma), Cell-Titre-Glo
Experimental: as §1

HUVEC = experiment: Anti-proliferative activity, CellTiter-Glo, 72 hours: HUVEC; format: cell-based, human; conditions: HUVEC (primary endolithial cells), Cell-Titre-Glo
Experimental: as §1

LoVo = experiment: Anti-proliferative activity, CellTiter-Glo, 72 hours: LoVo; format: cell-based, human; conditions: LoVo (colorectal cancer), Cell-Titre-Glo
Experimental: as §1

SU-DHL-10 = experiment: Anti-proliferative activity, CellTiter-Glo, 72 hours: SU-DHL-10; format: cell-based, human; conditions: SU-DHL-10 (B-cell lymphoma), Cell-Titre-Glo
Experimental: as §1

MDA-MB-231 = experiment: Anti-proliferative activity, CellTiter-Glo, 72 hours: MDA-MB-231; format: cell-based, human; conditions: MDA-MB-231 (breast cancer), Cell-Titre-Glo
Experimental: as §1

HK-2 = experiment: Anti-proliferative activity, CellTiter-Glo, 72 hours: HK-2; format: cell-based, human; conditions: HK-2 (kidney epilithial), Cell-Titre-Glo
Experimental: as §1

A549 = experiment: Anti-proliferative activity, CellTiter-Glo, 72 hours: A549; format: cell-based, human; conditions: A549 (non-small cell lung cancer), Cell-Titre-Glo
Experimental: as §1

MDA-MB-157 = experiment: Anti-proliferative activity, CellTiter-Glo, 72 hours: MDA-MB-157; format: cell-based, human; conditions: MDA-MB-157 (breast cancer); 72 hours; Cell-Titre-Glo
Experimental: as §1

HT-1080 = experiment: Anti-proliferative activity, CellTiter-Glo, 72 hours: HT-1080; format: cell-based, human; conditions: HT-1080 (fibrosarcoma), Cell-Titre-Glo
Experimental: as §1

SK-MEL-28 = experiment: Anti-proliferative activity, CellTiter-Glo, 72 hours: SK-MEL-28; format: cell-based, human; conditions: SK-MEL-28 (melanoma), Cell-Titre-Glo
Experimental: as §1

MIA PaCa-2 = experiment: Anti-proliferative activity, CellTiter-Glo, 72 hours: MIA PaCa-2; format: cell-based, human; conditions: MIA PaCa-2 (pancreactic cancer (carcinoma)), Cell-Titre-Glo
Experimental: as §1

NCI-H460 = experiment: Anti-proliferative activity, CellTiter-Glo, 72 hours: NCI-H460; format: cell-based, human; conditions: NCI-H460 (non-small cell lung cancer), Cell-Titre-Glo
Experimental: as §1

NCI-H2122 = experiment: Anti-proliferative activity, CellTiter-Glo, 72 hours: NCI-H2122; format: cell-based, human; conditions: NCI-H2122 (non-small cell lung cancer), Cell-Titre-Glo
Experimental: as §1

SU-DHL-4 = experiment: Anti-proliferative activity, CellTiter-Glo, 72 hours: SU-DHL-4; format: cell-based, human; conditions: SU-DHL-4 (B-cell lymphoma), Cell-Titre-Glo
Experimental: as §1

[1] = system: BJAB (malignant human B-cell-line); experiment: BJAB cell proliferation; format: cell-based; conditions: BJAB (malignant human B-cell-line) cell proliferation, EC50; read-out: BJAB
Text: In certain embodiments, the therapeutic compound is one of the compounds of the compound table below. […] In certain embodiments, the therapeutic compound is a compound having an activity as “A,” “B” or “C” in the table below. In certain embodiments, the therapeutic compound is a compound having an activity as “A” or “B” in the table below. In certain embodiments, the therapeutic compound is a compound having an activity as “A” in the table below.
In certain embodiments, the therapeutic compound is one of the compounds of the compound table below, optionally provided as a pharmaceutically-acceptable salt or N-oxide, and/or a solvate or hydrate. […] In certain embodiments, the therapeutic compound is a compound having an activity as “A,” “B” or “C” in the table below. In certain embodiments, the therapeutic compound is a compound having an activity as “A” or “B” in the table below. In certain embodiments, the therapeutic compound is a compound having an activity as “A” in the table below.

ATF4 = ATF4 induction by immunofluorescence in HCT-116 cells transfected with tGFP or FAM210B-GFP; format: cell-based, human; set-up: compound mediated ATF4 induction versus FAM210B expression: dose or concentration left out as unconfirmed
Text: FIG. 17 is a set of fluorescence micrographs of HCT-116 cells transfected with a vector expressing tGFP (left) or FAM210B-GFP (right).
FIG. 18 is a graph of ATF4 expression versus GFP expression for HCT-116 cells transfected with a vector expressing tGFP or FAM210B-GFP.
HCT-116 cells were transfected with a vector expressing tGFP or FAM210B-GFP. […] Following 4 hrs of drug treatment the cells were fixed, permeabilized, and ATF4 levels determined by immunofluorescence (IF), and FAM210B levels were determined by detection of GFP. Cells were binned based on median ATF4 protein expression and ranked relative to level of FAM210B-tGFP.

O=C(O)C(Cc1ccccc1[N+](=O)[O-])=NNc1nc(-c2ccc(Cl)c(Cl)c2)cs1 (mixture of isomers) [Compound 4EGI-1, 4EGI-1, reference compound]
IC50 (Jurkat): 13.2 µM | IC50 (HCT-116): 10.5 µM | IC50 (SU-DHL-6): 7.26 µM | IC50 (HUVEC): 7.99 µM | IC50 (LoVo): 14.1 µM | IC50 (SU-DHL-10): 19.5 µM | IC50 (MDA-MB-231): 5.77 µM | IC50 (HK-2): 46 µM | IC50 (A549): 21.8 µM | IC50 (MDA-MB-157): 11.8 µM | IC50 (HT-1080): 4.66 µM | IC50 (SK-MEL-28): 33.4 µM | IC50 (MIA PaCa-2): 14.3 µM | IC50 (NCI-H460): 9.46 µM | IC50 (NCI-H2122): 13.8 µM | IC50 (SU-DHL-4): 8.42 µM

Cc1nn(-c2nc(C3=CCC(C(F)(F)F)CC3)c(SC(C)C)s2)c(C(=O)O)c1-c1cccc(F)c1 (centres unmarked) [Compound B5, 4-(3-fluorophenyl)-1-(5-(isopropylthio)-4-(4-(trifluoromethyl)cyclohex-1-en-1-yl)thiazol-2-yl)-3-methyl-1H-pyrazole-5-carboxylic acid]
EC50 [1]: < 1 µM | compound mediated ATF4 induction versus FAM210B expression (ATF4; HCT-116 transfected with tGFP or FAM210B-GFP, 4 hrs, immunofluorescence): induction of ATF4 is inhibited by FAM210B expression in HCT-116 cells | effect of PERK inhibitors on compound mediated induction of ATF4 (ATF4; follow-up studies): no effect

COCCN(C)C(=O)CCc1sc(-n2nc(C)c(-c3cccc(F)c3)c2C(=O)O)nc1-c1ccc(C(F)(F)F)cc1 [Compound B54, 4-(3-fluorophenyl)-1-(5-(3-((2-methoxyethyl)(methyl)amino)-3-oxopropyl)-4-(4-(trifluoromethyl)phenyl)thiazol-2-yl)-3-methyl-1H-pyrazole-5-carboxylic acid]
EC50 [1]: > 20 µM

COCC(=O)N(C)c1ccc(-c2sc(-n3nc(C)c(-c4cccc(F)c4)c3C(=O)O)nc2-c2ccc(C(F)(F)F)cc2)cc1 [Compound B55, 4-(3-fluorophenyl)-1-(5-(4-(2-methoxy-N-methylacetamido)phenyl)-4-(4-(trifluoromethyl)phenyl)thiazol-2-yl)-3-methyl-1H-pyrazole-5-carboxylic acid]
EC50 [1]: > 20 µM

COCCOCC(=O)N(C)c1ccc(-c2sc(-n3nc(C)c(-c4cccc(F)c4)c3C(=O)O)nc2-c2ccc(C(F)(F)F)cc2)cc1 [Compound B56, 4-(3-fluorophenyl)-1-(5-(4-(2-(2-methoxyethoxy)-N-methylacetamido)phenyl)-4-(4-(trifluoromethyl)phenyl)thiazol-2-yl)-3-methyl-1H-pyrazole-5-carboxylic acid]
EC50 [1]: > 20 µM

COCc1sc(-n2nc(C)c(-c3cccc(F)c3)c2C(=O)O)nc1-c1ccc(C(F)(F)F)cc1 [Compound B57, 4-(3-fluorophenyl)-1-(5-(methoxymethyl)-4-(4-(trifluoromethyl)phenyl)thiazol-2-yl)-3-methyl-1H-pyrazole-5-carboxylic acid]
EC50 [1]: 5 to 10 µM

CCOCCOCCOc1ccc(-c2sc(-n3nc(C)c(-c4cccc(F)c4)c3C(=O)O)nc2-c2ccc(C(F)(F)F)cc2)cc1 [Compound B58, 1-(5-(4-(2-(2-ethoxyethoxy)ethoxy)phenyl)-4-(4-(trifluoromethyl)phenyl)thiazol-2-yl)-4-(3-fluorophenyl)-3-methyl-1H-pyrazole-5-carboxylic acid]
EC50 [1]: 1 to 5 µM

Cc1nn(-c2nc(-c3ccc(C(F)(F)F)cc3)c(-c3cccc(F)c3)s2)c(C(=O)O)c1-c1cccc(F)c1 [Compound B59, 4-(3-fluorophenyl)-1-(5-(3-fluorophenyl)-4-(4-(trifluoromethyl)phenyl)thiazol-2-yl)-3-methyl-1H-pyrazole-5-carboxylic acid]
EC50 [1]: < 1 µM

Cc1nn(-c2nc(-c3ccc(C(F)(F)F)cc3)c(CO)s2)c(C(=O)O)c1-c1cccc(F)c1 [Compound B60, 4-(3-fluorophenyl)-1-(5-(hydroxymethyl)-4-(4-(trifluoromethyl)phenyl)thiazol-2-yl)-3-methyl-1H-pyrazole-5-carboxylic acid]
EC50 [1]: > 20 µM

Cc1nn(-c2nc(N3CCC(C(F)(F)F)CC3)c(-c3ccc(C(F)(F)F)cc3)s2)c(C(=O)O)c1-c1cccc(F)c1 [Compound B61, 4-(3-fluorophenyl)-3-methyl-1-(5-(4-(trifluoromethyl)phenyl)-4-(4-(trifluoromethyl)piperidin-1-yl)thiazol-2-yl)-1H-pyrazole-5-carboxylic acid]
EC50 [1]: < 1 µM

Cc1nn(-c2nc(-c3cccc(F)c3)c(-c3ccc(C(F)(F)F)cc3)s2)c(C(=O)O)c1-c1cccc(F)c1 [Compound B62, 4-(3-fluorophenyl)-1-(4-(3-fluorophenyl)-5-(4-(trifluoromethyl)phenyl)thiazol-2-yl)-3-methyl-1H-pyrazole-5-carboxylic acid]
EC50 [1]: 5 to 10 µM

Cc1nn(-c2nc(-c3ccc(C(F)(F)F)cc3)c(C(C)O)s2)c(C(=O)O)c1-c1cccc(F)c1 (centres unmarked) [Compound B63, 4-(3-fluorophenyl)-1-(5-(1-hydroxyethyl)-4-(4-(trifluoromethyl)phenyl)thiazol-2-yl)-3-methyl-1H-pyrazole-5-carboxylic acid]
EC50 [1]: > 20 µM

Cc1nn(-c2nc(-c3ccc(C(F)(F)F)cc3)c(CCO)s2)c(C(=O)O)c1-c1cccc(F)c1 [Compound B64, 4-(3-fluorophenyl)-1-(5-(2-hydroxyethyl)-4-(4-(trifluoromethyl)phenyl)thiazol-2-yl)-3-methyl-1H-pyrazole-5-carboxylic acid]
EC50 [1]: > 20 µM

COCCOc1ccc(-c2sc(-n3nc(C)c(-c4cccc(F)c4)c3C(=O)O)nc2-c2ccc(C(F)(F)F)cc2)cc1 [Compound B65, 4-(3-fluorophenyl)-1-(5-(4-(2-methoxyethoxy)phenyl)-4-(4-(trifluoromethyl)phenyl)thiazol-2-yl)-3-methyl-1H-pyrazole-5-carboxylic acid]
EC50 [1]: 1 to 5 µM

COC(C)c1sc(-n2nc(C)c(-c3cccc(F)c3)c2C(=O)O)nc1-c1ccc(C(F)(F)F)cc1 (centres unmarked) [Compound B66, 4-(3-fluorophenyl)-1-(5-(1-methoxyethyl)-4-(4-(trifluoromethyl)phenyl)thiazol-2-yl)-3-methyl-1H-pyrazole-5-carboxylic acid]
EC50 [1]: 5 to 10 µM

Cc1nn(-c2nc(N3CCC(C(C)C)CC3)c(SC(C)C)s2)c(C(=O)O)c1-c1cccc(F)c1 [Compound B67, 4-(3-fluorophenyl)-1-(4-(4-isopropylpiperidin-1-yl)-5-(isopropylthio)thiazol-2-yl)-3-methyl-1H-pyrazole-5-carboxylic acid]
EC50 [1]: 1 to 5 µM

arsenite [reference compound]
effect of FAM210B expression on induction of ATF4 by the agent (ATF4): no effect

tunicamycin [reference compound]
effect of FAM210B expression on induction of ATF4 by the agent (ATF4; alternate pathways of ATF4 induction): no effect
